Data set [1] relates to LPS-induced endotoxin shock in Balb/c mice. As to the method:
Male 20- to 25-g Balb/c mice 8 to 10 weeks old were used. They were kept in our animal facility for at least one week prior to each experiment to allow adjustment and confirmation of their health. Each animal received rodent laboratory chow and water ad libitum. The CRH-R1 antagonist used was provided by the Pediatric and Reproductive Endocrinology Branch, NICHD, NIH, Bethesda, Md. Antalarmin was initially dissolved into 100% ethanol at a concentration of 200 mg/ml and then diluted in a 1:1 ratio with Cremaphor EL (Sigma), and finally brought to a working stock of 2 mg/ml antalarmin in 10% ethanol and 10% Cremaphor EL in sterile water. E coli lipopolysaccharide (serotype 0111:B4, cat. # L2630) and Salmonella enteritidis lipopolysaccharide (cat. # L6011) were purchased from Sigma. The antibodies and the reagents for the TNF-α, IL-1β and IL-6 determination were purchased from R&D (NE, USA).
For the determination of the LD50 groups composed of five mice were injected intraperitoneally (i.p) with either 200, 400, 600, 700 or 1000 μg/mouse of Salmonella-derived LPS (Sigma) dissolved in PBS at a concentration of 10 mg/ml. Survival of animals was monitored for a period of seven days. The same protocol was used for E. coli-derived LPS (O111:B4). To determine the effect of antalarmin in the survival of mice injected with LPS, 40 mice were divided in four different groups; the first group received antalarmin at a concentration of 20 mg/kg of body weight; the second received antalarmin at 20 mg/kg of body weight and LPS at a concentration of 0.7 mg per 25 g of body weight; the third group received LPS and the antalarmin diluent while the fourth group received the antalarmin diluent alone.

For data set [2] the test system is unchanged. Briefly: Serum proinflammatory cytokines (ELISA) in LPS-induced endotoxin shock. It counts as in vivo. As to conditions: for TNF-α level / IL-6 level / IL-1β level: antalarmin pre-treated vs LPS alone; for IL-6 level / IL-1β level: 4 hours after LPS; for IL-1β level: p=0.013. As to the method: (§1) Each time point and treatment group was composed of five animals per experiment. Sera were collected and frozen until used for cytokine determination by ELISA according to manufacturer (R&D, NE, USA). Similarly, cell culture supernatants were collected 24 hours following stimulation and stored at −70° C. until analyzed. Corticosterone was measured by RIA in serum collected 1 hour following LPS administration. Five animals per treatment were used. Sera were frozen at −70° C. and analyzed as recommended by the manufacturer (ICN, USA).

The target of data set [3] is T1, CRH-R1 receptor (Mus musculus, UniProt P35347).
T1 construct: monocyte/macrophage cells which express both the CRH-R1 and the CRH-R2 receptors on the surface; endogenous in cells; host or cells: macrophages in vitro (RAW 264.7 or Balb/c peritoneal macrophages, inferred)
T1 sequence (P35347 24-415): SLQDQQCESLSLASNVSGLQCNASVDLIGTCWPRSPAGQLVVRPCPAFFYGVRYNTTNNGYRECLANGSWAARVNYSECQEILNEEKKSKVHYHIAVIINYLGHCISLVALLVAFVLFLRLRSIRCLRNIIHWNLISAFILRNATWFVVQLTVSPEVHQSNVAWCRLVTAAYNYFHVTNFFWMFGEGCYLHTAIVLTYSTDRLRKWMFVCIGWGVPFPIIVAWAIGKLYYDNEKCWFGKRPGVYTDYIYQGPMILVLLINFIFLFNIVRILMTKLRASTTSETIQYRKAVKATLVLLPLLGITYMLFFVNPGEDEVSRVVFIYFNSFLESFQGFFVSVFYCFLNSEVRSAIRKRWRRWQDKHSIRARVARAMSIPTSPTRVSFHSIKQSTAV
As to conditions: cited from earlier work.

Data set [4] concerns the target T2, CRH-R1 receptor (Rattus norvegicus, UniProt P35353).
T2 construct: endogenous in cells; host or cells: PC12 rat pheochromocytoma cells
T2 sequence (P35353 24-415): T1 sequence (P35347 24-415) with Q6R, S9N, A13T, I95V, Y229H
As to conditions: PC12 rat pheochromocytoma cells; cited from earlier work.

Another data set concerns Balb/c mice. The data set is described as follows: Determination of the LD50 of LPS i.p. It counts as in vivo.
A further data set deals with T3, CRH-R2 receptor (Mus musculus, UniProt Q60748).
T3 construct: monocyte/macrophage cells which express both the CRH-R1 and the CRH-R2 receptors on the surface; endogenous in cells; host or cells: macrophages
As to conditions: cited from earlier work.

Data set [5] has as its system RAW264.7 cells. The data set is described as follows: LPS-induced cytokine secretion from RAW264.7 macrophages (ELISA). It counts as cell-based, mouse. As to the method: (§2) RAW 264.7 cells were cultured in Dulbecco's Modified Eagle Medium supplemented with 10% fetal calf serum (FCS), 10 mM L-glutamine, 100 U/ml penicillin, 0.1 mg/ml streptomycin (all purchased by Gibco), at 5% CO2 and 37° C. Cells were plated in 25 cm^2 flasks one day prior to stimulation. Cells were then stimulated with 10 μg/ml Ecoli-derived LPS (serotype 0111:B4, cat. # L2630, Sigma) and recombinant CRH (Sigma) at a concentration of 10^−8 M.
as §1, with “Serum from trunk blood was collected as follows: a) for the determination of TNF-α 1 hour after LPS administration and b) at 4 hours for the determination of IL-1β or IL-6 levels. Each” for “Each”

Data set [6] relates to thioglycollate-elicited peritoneal macrophages. Briefly: Cytokine mRNA in thioglycollate-elicited peritoneal macrophages, RT-PCR. The format is cell-based, Balb/c mice. As to the method:
A 4% thioglycollate solution was prepared and autoclaved 2 days prior to administration. 1.5 ml of the thioglycollate solution was injected intraperitoneally in BALB/c mice and peritoneal macrophages were isolated by lavage of the peritoneal cavity with Dulbecco's Modified Medium. Cells were then cultured in DMEM supplemented with 10% FCS, 10 mM L-glutamine, 100 U/ml penicillin, 0.1 mg/ml streptomycin (Gibco). Cells were plated at a concentration of 5×10^5/ml and maintained in culture 24 hours prior to stimulation.
(§3) Total cellular RNA was isolated using Trizol reagent (Gibco). Following reverse transcription (Thermoscript RT, Invitrogen), 1 μl of the cDNA product was amplified by PCR at 33 cycles. […] Intensity of the bands was quantified using TINAscan software.
(§4) Primers for actin were: sense, 5′-TCAGAAGAACTCCTATGTGG-3′; antisense, 5′-TCTCTTTGATGTCACGCACG-3′, giving a 499 bp product; for Tnf-α were: 5′-CACGCTCTTCTGTCTACTGAACTTCG-3′; 5′-GGCTGGGTAGAGAATGGATGAACACC-3′, giving a 590 bp product; for IL-1β were 5′-GGATGAGGACATGAGCACCT-3′ and 5′-TCCATTGAGGTGGAGAGCTT-3′, resulting in a 196 bp product; for IL-6,5′-TGAAGTTCCTCTCTGCAAGAGACT-3′,5′-TGA GGA AGG CCG TGG TTG T-3′, giving a 200 bp product. […] The quantitation was performed using the “TI-NAscan” software. […]

Data set [7] concerns RAW264.7 cells. Briefly: Cytokine mRNA in RAW264.7 cells, semi-quantitative RT-PCR. The format is cell-based, mouse. The procedure: as §2, §3, §4
Setting [8] is: CRH 1×10^−8 M plus LPS 10 μg/ml, 24 hours, vs LPS alone, p=0.04.

Substitutions are numbered along the chain they refer to. “Also recorded” adds a separate entry of the source. No end group written: not given here.

T3 sequence (Q60748 whole entry): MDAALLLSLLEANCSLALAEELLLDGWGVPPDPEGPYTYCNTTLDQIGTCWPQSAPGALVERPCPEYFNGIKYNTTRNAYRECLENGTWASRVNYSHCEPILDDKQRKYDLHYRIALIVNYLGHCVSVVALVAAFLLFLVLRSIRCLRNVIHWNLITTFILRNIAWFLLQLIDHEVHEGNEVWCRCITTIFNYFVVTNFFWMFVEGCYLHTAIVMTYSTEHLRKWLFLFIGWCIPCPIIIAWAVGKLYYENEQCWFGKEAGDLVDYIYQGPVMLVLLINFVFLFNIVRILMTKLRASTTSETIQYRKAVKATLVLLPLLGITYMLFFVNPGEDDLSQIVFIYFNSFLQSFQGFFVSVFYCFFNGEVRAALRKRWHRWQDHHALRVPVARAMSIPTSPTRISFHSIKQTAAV

Turning to `CCCCN(CC)c1nc(C)nc2c1c(C)c(C)n2-c1c(C)cc(C)cc1C` [antalarmin], the “mice still alive at 18 h” value in [1] (E coli-derived LPS 0.7 mg/25 g, antalarmin pre-treatment, all animals with LPS alone had died) is reported as 72%. The overall survival result in data set [1] (E coli-derived LPS, in the presence of antalarmin, p=0.002, observed 7 days) is listed as “significantly improved”. Besides, the “animals that had died at 18 hours” value in data set [1] (Salmonella enteritidis-derived LPS 0.7 mg/25 g i.p., antalarmin 20 mg/kg IP 1.5 h prior to LPS, LPS alone 60%) turned out to be 20%. Further, the TNF-α level entry in [2] (1 h after LPS, p=0.001) is listed as “significantly reduced”; in data set [2] (2 hours after LPS injection, p<0.001) it was “significantly lower”. The IL-6 level entry in data set [2] (p<0.001) was “significantly lower”; in data set [2] (p<0.001, listed as Antalarmin), “significantly reduced”. The values for the IL-1β level result in data set [2] and in data set [2] (listed as Antalarmin) were “significantly lower” and “significantly reduced”, respectively. Also, the “IL-6 level of LPS treated animals compared with LPS plus antalarmin treated mice” value in data set [2] (6 hours after LPS, p<0.001, value describes LPS alone relative to LPS plus antalarmin) is “significantly higher”. The “IL-1β level of LPS treated animals compared with LPS plus antalarmin treated mice” value in data set [2] (6 hours after LPS, p<0.01, value describes LPS alone relative to LPS plus antalarmin) is reported as “significantly higher”. The “effect on the enhancing effect of CRH” value at CRH-R1 receptor [3] (macrophages in vitro, LPS) is “blocked completely”. Besides, the “effect on CRH-mediated effects (p38, Fas ligand, apoptosis)” value on CRH-R1 receptor [4] is recorded as “blocks all”.
Turning to Lipopolysaccharide [LPS], the animals survived result was “One hundred” in the data set with Balb/c mice (LPS 0.2 mg/25 g i.p.); 80% in the data set on Balb/c mice (LPS 0.4 mg/25 g i.p.); 40% with Balb/c mice (LPS 0.6 mg/kg i.p. (so in the source)); “none” in the data set on Balb/c mice (LPS 0.7 mg/25 g i.p.); “none” in the data set with Balb/c mice (LPS 1 mg/25 g i.p.). For the same molecule, the LD100 in the data set on Balb/c mice (LPS i.p., mice) is recorded as ≥ 0.7 mg per 25 g of body weight. In the data set with Balb/c mice (LPS i.p., mice, survival monitored seven days), this molecule returned an LD50 of 0.5 mg per 25 g body weight.
As to “Urocortin II (IVLSLDVPIGLLQILLEQARARAAREQATTNARILARVGHC; ends and bridges not checked; UniProt Q96RP3 72-112, looked up) [CRH-related peptide that induces macrophage apoptosis via the CRH-R2 receptor]”, the apoptosis on macrophages entry with CRH-R2 receptor is on record as “induce apoptosis”.
For corticotropin-releasing hormone [CRH], the “LPS-induced IL-1β secretion” value in the data set on RAW264.7 cells [5] (CRH 1×10^−8 M plus LPS 10 μg/ml, 24 hours, vs LPS alone, p=0.01) is given as “potentiates; also recorded: significantly augmented”. Besides, in the data set on RAW264.7 cells [5] (setting [8]), the “LPS-induced IL-6 secretion” value is listed as “potentiates; also recorded: significantly augmented” and the “LPS-induced TNF-α secretion” value is “significantly higher; also recorded: significantly augmented”. Also, in the data set with RAW264.7 cells [5] (CRH 1×10^−8 M without LPS), the “cytokine secretion, CRH alone” value is recorded as “only a minimal effect”. Besides, in [6] (CRH plus LPS), the “LPS-induced pro-inflammatory cytokine expression” value is “augments; also recorded: significantly augmented”. In data set [6] (CRH without LPS), the “TNF-α, IL-1β or IL-6 transcription, CRH alone” value was “unable to induce”. Besides, the “inflammatory response to lipopolysaccharide (LPS) of macrophages” value with CRH-R1 receptor [3] (in vitro) is “enhances”. In addition, in the data set with CRH-R1 receptor [4], the Fas ligand production result is reported as “stimulates”, the apoptosis result is recorded as “induces apoptosis” and the “p38 mitogen-activated protein kinase” value is recorded as “activates”. Also, the “LPS-induced cytokine transcription (IL-1β, TNF-α, IL-6 mRNA)” value in the data set on RAW264.7 cells [7] (CRH plus LPS, densitometry normalized versus actin) is on record as “further potentiates; also recorded: strongly augmented”. In addition, the “transcription of IL-1β, TNF-α, or IL-6, CRH alone” value in the data set on RAW264.7 cells [7] (CRH without LPS) is “induces expression; also recorded: minimal transcription”.
Regarding sauvagine-30, the “effect on Urocortin / Urocortin II induced macrophage apoptosis” value on CRH-R2 receptor is given as “completely abolishes”.

(Values after patent publication US20090247558A1, “USE OF THE CRH (CORTICOTROPIN RELEASING HORMONE) - UCN (UROCORTIN) SYSTEM IN THE TREATMENT OF INFLAMMATORY DISEASES” (priority 2002, published 2009).)
